A short description of one series: in vitro. The following applies: human, uninfected MT-4 cells.
The next series has as its system MT-4 cells. The experiment in a line: Cytotoxicity assay in MT-4 cells. The settings on record: uninfected MT-4 cells.
The test system of the next series is pLAI reporter virus. As to the kind of experiment: microbe, parasite or virus in culture. The following applies: read-out: RLUC CCM EC50. It is filed as cell-based, HIV.
The next series has as its system HIV-1 (IIIB). The experiment in a line: microbe, parasite or virus in culture. It is filed as cell-based. The settings on record: HIV-1 (IIIB) in MT-4 cells, 5 days incubation, Cell Titer Glo, read-out: MT4 EC50.

We go through one compound from US20250115620A1, “BRIDGED TRICYCLIC CARBAMOYLPYRIDONE COMPOUNDS AND USES THEREOF” (Gilead Sciences, Inc., priority 2022, published 2025).

By CC50 is commonly meant the concentration at which the toxic effect on the cells reaches its halfway point. Read a high CC50 as better tolerance by the cells. By EC50 is commonly meant the concentration needed to bring the measured effect to its halfway point.

Where two headings read alike, the source gives them in different places.

Protocol for HIV-1 (IIIB): Compounds were tested in a high-throughput 384-well assay format for their ability to inhibit the replication of HIV-1 (IIIB) in MT-4 cells. Compounds were serially diluted (1:3) in DMSO on 384-well polypropylene plates and further diluted 200-fold into complete RPMI media (10% FBS, 1% P/S) using the Biotek Micro Flow and Labcyte ECHO acoustic dispenser. Each plate contained up to 8 test compounds, with negative (No Drug Control) and 5 μM AZT positive controls. MT-4 cells were pre-infected with 10 μL of either RPMI (mock-infected) or a fresh 1:250 dilution of HIV-1 IIIB concentrated virus stock. Infected and uninfected MT-4 cells were further diluted in complete RPMI media and added to each plate using a Micro Flow dispenser. After 5 days incubation in a humidified and temperature controlled incubator (37° C.), Cell Titer Glo (Promega) was added to the assay plates and chemiluminescence read using an Envision plate-reader.
Protocol for MT-4 cells: (§1) Compounds were serially diluted (1:3) in DMSO on 384-well polypropylene plates and further diluted 200-fold into complete RPMI media (10% FBS, 1% P/S) using the Biotek Micro Flow and Labcyte ECHO acoustic dispenser. […] Infected and uninfected MT-4 cells were further diluted in complete RPMI media and added to each plate using a Micro Flow dispenser. After 5 days incubation in a humidified and temperature controlled incubator (37° C.), Cell Titer Glo (Promega) was added to the assay plates and chemiluminescence read using an Envision plate-reader.
(§2) Assays were performed as above except uninfected MT-4 cells were added to each well containing test compound. In addition, 10 μM puromycin was added to the last column of each assay plate to assess a base level of cytotoxicity.
Protocol for in vitro: as §1, §2

`CC1=NN(c2ccccc2)C2(CC[C@H](C)N3C[C@H]2n2cc(C(=O)NCc4c(F)cc(F)cc4F)c(=O)c(O)c2C3=O)C1` (single isomer, unassigned) [Example 90, (3′S,7′R)-12′-hydroxy-3′,5-dimethyl-1′,11′-dioxo-2-phenyl-N-(2,4,6-trifluorobenzyl)-1′,2,4,4′,5′,11′-hexahydro-3′H,7′H-spiro[pyrazole-3,6′-[2,7]methanopyrido[1,2-a][1,4]diazonine]-10′-carboxamide] displayed a CC50 at 5 days in the series “in vitro” of 22300 nM. Also, the CC50 with MT-4 cells was found to be 20000 nM. For the same compound, the EC50 is 1.3 nM in the series with pLAI reporter virus (Human immunodeficiency virus 1, MT4, 72 h); 1.2 nM in the series on pLAI reporter virus; 3.2 nM in the series on HIV-1 (IIIB); 4.3 nM in the series on HIV-1 (IIIB) (Human immunodeficiency virus 1, IIIB, MT4, 120 h).
